Source: PubChem BioAssay AID2305 (GlaxoSmithKline (GSK), 2010)

Tested on: P. falciparum 3D7 growth, pLDH absorbance
Experiment: blood-stage malaria parasite growth potency – strain 3D7, dose response (AID 2305)

| SMILES | IC50 |
| --- | --- |
| CCn1c(-c2nonc2N)nc2cnc(Oc3cccc(NC(=O)c4ccc(OCCN(C(C)C)C(C)C)cc4)c3)cc21 | 0.78 µM |
| CCN(CC)c1ccc(C(=O)Cn2ccc(=N)cc2)cc1 | 1 µM |
| O=C(/C=C/c1ccccc1Cl)Nc1ccc(Br)c(OCCN2CCCCC2)c1 | 0.17 µM |
| CCc1ccc(C2=Nn3c(nnc3-c3cccs3)SC2)cc1 | 1.29 µM |
| Clc1ccc(Nc2nc(NCc3ccccc3)nc(N/N=C/c3ccccn3)n2)cc1 | 0.78 µM |
| CCc1ccc(NC(=O)c2ccc(CN3CCCN(CC4CCCCC4)CC3)cc2)cc1 | 0.71 µM |
| CC(C)C[C@H](Nc1ccnc(NCC2CCCCC2)n1)C(=O)NCCc1ccccc1 | 0.75 µM |
| N=C(N)c1ccc2[nH]c(-c3cc4cc(C(=N)N)ccc4o3)cc2c1 | 0.18 µM |
| COc1ccc(CNCCc2cccs2)cc1-c1ccc(S(=O)(=O)NCCN2CCCC2)cc1 | 0.65 µM |
| CS(=O)(=O)Cc1ccc(Nc2nccc(NC3CCN(c4nccc(C(F)(F)F)n4)CC3)n2)cc1 | 0.9 µM |
| Cc1cc(CN2CCCC(OC(c3ccc(F)cc3)c3ccc(F)cc3)C2)ccc1O (stereo not given) | 0.88 µM |
| COc1ccc2nccc(N3CCC(SCCNCc4ccc5c(n4)NC(=O)CS5)C3)c2n1 (stereo not given) | 0.25 µM |
| CN1CCN(CCCNc2ncc3c(-c4ccc(NC(=O)Nc5cc(C(F)(F)F)ccc5F)c(F)c4)nn(C)c3n2)CC1 | 0.86 µM |
| COc1ccccc1NC(=S)N/N=C/c1ccc(O)cc1O | 1.02 µM |
| COc1ccc(-c2ccc(NC(=O)c3cccc(Cl)c3)cc2)cc1CN1CCCC1 | 0.71 µM |
| CC(C)CC(=O)N1CCNC[C@@H]1C(=O)NCCSCc1c(F)cccc1Cl | 1.2 µM |
| Nc1nc(N)c2nc(C3CC=CCC3)c(N)nc2n1 (stereo not given) | 0.16 µM |
| CC(=O)c1cccc2c(NC(=O)Nc3ccc4nccc(N5CCN(C)CC5)c4c3)cccc12 | 0.4 µM |
| O=C(Nc1ccc(-c2nc3cc4ccccc4cc3[nH]2)cc1)c1cccc(Br)c1 | 0.36 µM |
| C=C(C)C1CC=C(CN2CCC(N3CCc4cc(NC(=O)c5cc(C)on5)ccc43)C2)CC1 (stereo not given) | 0.71 µM |

| SMILES | IC50 |
| --- | --- |
| Cc1cc(NC(=O)Nc2ccc3sccc3c2)c2ccccc2n1 | 0.53 µM |
| CN(C)c1cc(NC(=O)Nc2ccc(SC(F)(F)F)cc2)c2ccccc2n1 | 0.14 µM |
| Fc1cccc(Nc2nc(NCc3ccc(Cl)c(Cl)c3)nc(Nc3cccc(F)c3)n2)c1 | 0.75 µM |
| Cc1ccc(Nc2ccnc(Nc3ccc(C)c(F)c3)n2)cc1O | 0.76 µM |
| N#Cc1ccc(NC(=NCc2ccc(Cl)cc2Cl)Nc2cccc(Cl)c2Cl)c(O)c1 | 1.12 µM |
| COc1c(Br)cc(Br)cc1-c1ccc(CN2CC3CCC2CC3)[nH]1 | 0.69 µM |
| NCc1ccc(CNCc2cccc(-c3ccc(-c4nc5ccc(C(F)(F)F)cc5[nH]4)cc3)c2)cc1 | 0.26 µM |
| Cc1cc2c(NC(=O)NC3CCN(CCc4ccccc4Cl)CC3)cccc2cn1 | 0.39 µM |
| COc1cc(Cc2cnc(N)nc2N)cc(OCCCN2C(=O)c3ccccc3C2=O)c1OC | 0.99 µM |
| COC(=O)c1cccc(CNCc2ccc(-c3ccc(-c4nc5ccccc5[nH]4)s3)cc2)c1 | 0.29 µM |
| N#Cc1ccc(NC(=O)NC2CCN(CCCCCNC(=O)/C=C/c3ccc(Cl)c(Cl)c3)CC2)cc1 | 0.8 µM |
| Cc1[nH]c2ccc(-c3ccccc3)cc2c(=O)c1Br | 0.16 µM |
| CC(C)(CNCc1cccc(Oc2cccc(C(F)(F)F)c2)c1)c1nc(-c2ccc(Cl)c(O)c2)c(-c2ccnc(N)n2)[nH]1 | 0.19 µM |
| CCCCC1(NC(=O)[C@H](CC(C)C)Nc2ccc(C#N)c3ccccc23)CCCCC1 | 0.8 µM |
| Clc1ccc(CNc2nc(NCCc3cnc[nH]3)nc(NC3CCCCC3)n2)cc1 | 0.21 µM |
| CCCc1ccc(S(=O)(=O)NC2CCN(c3ccnc(Nc4ccc(F)cc4)n3)C2)cc1 (stereo not given) | 1.01 µM |
| COc1cc2c(cc1COc1ccccc1)CCN1Cc3cc(OC)c(OC)cc3CC21 (stereo not given) | 0.15 µM |
| CCCCCc1cc(O)c2c(c1)OC(C)(C)CC2C1=CCN(Cc2cnc3ccccc3c2)CC1 (stereo not given) | 0.28 µM |
| COc1ccc(N2CCN(CCCNC(=O)c3ccc(NC(=O)c4cc(Cl)cc(Cl)c4)cc3)CC2)c(OC)c1 | 0.27 µM |
| CCOc1cc(C(=O)NCCN(C(C)C)C(C)C)ccc1-c1nc2ccc(Cl)cc2[nH]1 | 0.78 µM |
